Measurements as given in US20200171066A1, “EYE DROP FOR TREATING DRY EYE” (Xiamen University, priority 2017, published 2020).

Experiments:
NF-κB signaling pathway = conditions: 0.025% applied topically to the eye, mice; cited from earlier work
dry eye dogs = conditions: 0.02% drops applied topically in the eye; cited from earlier work
[1] = tested on: Patients with Sjogren's syndrome; conditions: 0.03%; cited from earlier work
[2] = cited from earlier work
TNF-α = test: Real-Time PCR of conjunctival RNA in dry eye mouse model; type: in vivo, C57BL/6 mice; conditions: 0.1% eye drop, compared with the dry eye group
Description: (§1) 1. Establish a dry eye mouse model: Female C57BL/6 mice of 10-12 weeks old were injected subcutaneously with scopolamine 0.5 mg/0.2 mL four times a day and kept in a dry environment for 5 days (RH: 30±3; T: 23-25° C.); normal control group was maintained in normal environment (RH: 60%-80%; T: 23-25° C.).
(§2) Preparation of mizoribine eye drop: dry eye treatment group used 0.1% of mizoribine eye drop prepared by the method of Embodiment 1.
(§3) Eye drop method: Eye drop treatment was performed using the above-mentioned eye drops 4 times a day on both eyes.
(§4) Prepare the PCR reaction solution according to the following components:
(§5) Three-step PCR amplification standard procedure:
(§6) Stage 1: Pre-denaturation cycle number: 195° C., 30 sec.
(§7) Stage 2: number of PCR reaction cycles: 4095° C. for 5 sec. and 60° C. for 34 sec.
(§8) Stage 3: Dissolving curve
(§9) The relative expression level of the gene was analyzed by the relative Ct method, and the specific expression of the target gene was calculated by the following formula, that is to say, the relative expression level=2^−ΔΔCt; wherein −ΔΔCt=−(ΔCt, q−ΔCt, cb), ΔCt, q=Ct,x−Ct, r ΔCt, cb=Ct, cb−Ct, r, where r=reference gene, Cb=calibration value, X=target gene, and cycle threshold (C) is determined through primary signal (fluorescence).

IL-13 = test: as above; type: in vivo, C57BL/6 mice; conditions: 0.1% eye drop, compared with the dry eye group
Description: as §1, §2, §3, §4, §5, §6, §7, §8, §9

IFN-γ = test: as above; type: in vivo, C57BL/6 mice; conditions: 0.1% eye drop, compared with the dry eye group
Description: as §1, §2, §3, §4, §5, §6, §7, §8, §9

IL-1β = test: as above; type: in vivo, C57BL/6 mice; conditions: 0.1% eye drop, compared with the dry eye group
Description: as §1, §2, §3, §4, §5, §6, §7, §8, §9

[3] = tested on: conjunctival CD4+T cell infiltration; test: Conjunctival CD4+T cell staining in dry eye mouse model; type: in vivo, C57BL/6 mice; conditions: 0.1% eye drop, compared with the dry eye group
Description: as §1, §2, §3
3. Conjunctival CD4+T cell staining: fixing frozen sections by acetone at −20° C. for 10 minutes, disrupting with 0.2% of Triton-X PBS for 10 minutes, and using 0.3% of H2O2 to eliminate endogenous peroxidase, blocking with 20% of normal goat serum for 45 minutes. The primary anti-CD4 was incubated for 1 hour at room temperature. After extensive washing (digestion), the biotinylated (second) antibody was incubated for 30 minutes. Finally, a Vectastain Elite ABC kit was used to develop color and stain the nucleus.

[4] = tested on: conjunctival goblet cells; test: PAS staining of conjunctival goblet cells in dry eye mouse model; type: in vivo, C57BL/6 mice; conditions: 0.1% eye drop, compared with the dry eye group
Description: as §1, §2, §3
2. PAS staining of conjunctival goblet cells: Paraffin specimens of the whole eyeballs (conjunctival sac) of the mice were cut into 5 um sections and stained with periodic acid-Schiff (PAS) reagent to observe the morphology and number of conjunctival goblet cells.

[5] = tested on: corneal epithelial barrier of mice suffering dry eye; test: Corneal OGD fluorescent staining in dry eye mouse model; type: in vivo, C57BL/6 mice; conditions: 0.1% eye drop, 4 times a day on both eyes
Description: as §1, §2, §3
1. Corneal OGD fluorescent staining: mice were sacrificed, and 0.5 μl of Oregongreen-dextran (OGD) was dropped into the conjunctival sac of mice with a pipette, manual blinking was performed, and the conjunctival sac was washed with 1 mL of normal saline 1 minute later. The corneal epithelial fluorescence staining was observed and shot under a living fluorescence microscope.

Compound: C=CC[C@@H]1/C=C(\C)C[C@H](C)C[C@H](OC)[C@H]2O[C@@](O)(C(=O)C(=O)N3CCCC[C@H]3C(=O)O[C@H](/C(C)=C/[C@@H]3CC[C@@H](O)[C@H](OC)C3)[C@H](C)[C@@H](O)CC1=O)[C@H](C)C[C@@H]2OC [FK506, tacrolimus]
- activation of NF-κB signaling pathway (NF-κB signaling pathway): inhibit the activation of NF-κB signaling pathway
- ocular surface signs of dry eye (NF-κB signaling pathway): reduce the ocular surface signs of dry eye
- amount of tear secretion (dry eye dogs): significantly increase
- tear film stability [1]: improve tear film stability
- solubility in water [2]: hardly soluble in water

Compound: NC(=O)c1ncn([C@@H]2O[C@H](CO)[C@@H](O)[C@H]2O)c1O [mizoribine]
- expression of conjunctival TNF-α (TNF-α): significantly decreased
- expression of conjunctival IL-13 (IL-13): significantly decreased
- expression of conjunctival IFN-γ (IFN-γ): significantly decreased
- expression of conjunctival IL-1β (IL-1β): significantly decreased
- proportion of brown-yellow cells (conjunctival CD4+T cells) [3]: significantly reduced
- number of conjunctival goblet cells (PAS) [4]: significant increase
- corneal flaky staining (OGD) [5]: no flaky staining was observed
- number of corneal punctiform staining (OGD) ([5]; compared with the dry eye group): significantly reduced
